Bounds are passed on as bounds.

The species named for experiment [1] is Rattus norvegicus. The experiment is described as follows: Inhibition of amphetamine induced stereotypy in rats; pretreated 1 hr before amphetamine. The class given is functional.
For experiment [2], the system named is Rattus norvegicus. Kind of experiment: Tested for neuroleptic activity by measuring antagonism of d-amphetamine sulfate at intraperitoneal dosage of 5 mg/kg, after 5 hours in rat. The class given is functional. Particulars: ip.
Experiment [3] deals with Rattus norvegicus. The experiment is described as follows: Tested for neuroleptic activity by measuring antagonism of d-amphetamine sulfate at intraperitoneal dosage of 5 mg/kg, after 24 hours in rat; Range is 1.0-32. The class given is functional. To be noted: ip.
The subject of experiment [4] is Canis familiaris. Kind of experiment: The ability of compound to prevent the emesis induced by apomorphine (0.1 mg/kg, iv) in dogs at the specified dosage of 2.0 mg/kg (1 N saline); Range is 1-2. The class given is functional, Canis lupus familiaris.
The test system of experiment [5] is Rattus norvegicus. Kind of experiment: Tested for neuroleptic activity by measuring antagonism of d-amphetamine sulfate at intraperitoneal dosage of 5 mg/kg, after 1 hour in rat; Range is 0.32-1.0. The class given is functional. Particulars: ip.
For experiment [6], the system named is Rattus norvegicus. The experiment is described as follows: Tested for neuroleptic activity by measuring antagonism of d-amphetamine sulfate at intraperitoneal dosage of 5 mg/kg, after 5 hours in rat; Range is 0.32-1.0. The class given is functional. To be noted: ip.
Experiment [7] concerns Rattus norvegicus. Kind of experiment: Tested for neuroleptic activity by measuring antagonism of d-amphetamine sulfate at intraperitoneal dosage of 5 mg/kg, after 24 hours in rat; Range is 3.2-10. Particulars: ip. In kind it is functional.
The species named for experiment [8] is Rattus norvegicus. Kind of experiment: animal or person. To be noted: ip, 1 h.
Description: tested for neuroleptic activity by measuring antagonism of d-amphetamine sulfate at intraperitoneal dosage of 5 mg/kg, after 1 hour in rat
The species named for experiment [9] is Rattus norvegicus. The experiment is described as follows: animal or person. To be noted: ip, 24 h.
Description: tested for neuroleptic activity by measuring antagonism of d-amphetamine sulfate at intraperitoneal dosage of 5 mg/kg, after 24 hours in rat
The species entered for experiment [10] is Rattus norvegicus. The experiment is described as follows: animal or person. Particulars: ip, 5 h.
Description: tested for neuroleptic activity by measuring antagonism of d-amphetamine sulfate at intraperitoneal dosage of 5 mg/kg, after 5 hours in rat
In experiment [11] the test system is Rattus norvegicus. Kind of experiment: Tested for neuroleptic activity by measuring antagonism of d-amphetamine sulfate at intraperitoneal dosage of 5 mg/kg, after 1 hour in rat; Range is 1.0-3.2. In kind it is functional. To be noted: ip.
In experiment [12] the test system is Rattus norvegicus. The experiment is described as follows: Tested for neuroleptic activity by measuring antagonism of d-amphetamine sulfate at intraperitoneal dosage of 5 mg/kg, after 5 hours in rat; Range is 1.0-3.2. In kind it is functional. Particulars: ip.
Experiment [13] deals with Rattus norvegicus. Kind of experiment: Tested for neuroleptic activity by measuring antagonism of d-amphetamine sulfate at intraperitoneal dosage of 5 mg/kg, after 24 hours in rat; Range is 1.0-3.2. In kind it is functional. To be noted: ip.
For experiment [14], the system named is Canis familiaris. The experiment is described as follows: The ability of compound to prevent the emesis induced by apomorphine (0.1 mg/kg, iv) in dogs at the specified dosage of 2.0 mg/kg (1 N saline). In kind it is functional, Canis lupus familiaris.
In experiment [15] the test system is Canis familiaris. The experiment is described as follows: The ability of compound to prevent the emesis induced by apomorphine (0.1 mg/kg, iv) in dogs at the specified dosage of 3.2 mg/kg (sesame oil); Range is 8-9. The class given is functional, Canis lupus familiaris.
Experiment [16] has as its system Rattus norvegicus. The experiment is described as follows: Tested for neuroleptic activity by measuring antagonism of d-amphetamine sulfate at intraperitoneal dosage of 5 mg/kg, after 24 hours in rat; Range is 10-32. In kind it is functional. To be noted: ip.
In experiment [17] the test system is Rattus norvegicus. The experiment is described as follows: Tested for neuroleptic activity by measuring antagonism of d-amphetamine sulfate at intraperitoneal dosage of 5 mg/kg, after 1 hour in rat; Range is 0.1-0.32. In kind it is functional. Particulars: ip.
Experiment [18] has as its system Rattus norvegicus. Kind of experiment: Tested for neuroleptic activity by measuring antagonism of d-amphetamine sulfate at intraperitoneal dosage of 5 mg/kg, after 5 hours in rat; Range is 0.1-0.32. The class given is functional. To be noted: ip.
Experiment [19] has as its system Rattus norvegicus. Kind of experiment: Tested for neuroleptic activity by measuring antagonism of d-amphetamine sulfate at intraperitoneal dosage of 5 mg/kg, after 24 hours in rat; Range is 0.32-1.0. In kind it is functional. To be noted: ip.

`OC(CCCN1CCc2c(c3cc(F)ccc3n2-c2ccc(Cl)cc2)C1)c1ccc(F)cc1` (centres undefined): the ED50 (in general, the midpoint of the dose-response relation) in the experiment listed under Rattus norvegicus [1] is greater than 32 mg/kg; with Rattus norvegicus [2], greater than 32 mg/kg; with Rattus norvegicus [3], 1 mg/kg.

For `CCCCCCC(=O)OC(CCCN1CCc2c(c3cc(F)ccc3n2-c2ccc(F)cc2)C1)c1ccc(F)cc1.Cl` (centres undefined), the Protection in the experiment with Canis familiaris [4] is 1 days.

As for `Cl.Fc1ccc(CCCCN2CCc3c(c4cc(F)ccc4n3-c3ccc(F)cc3)C2)cc1`, the ED50 with Rattus norvegicus [5] amounted to 0.32 mg/kg; with Rattus norvegicus [6] it was 0.32 mg/kg; in the experiment on Rattus norvegicus [7], 3.2 mg/kg.

Turning to `Cl.O=C(CCN1CCc2c(c3cc(F)ccc3n2-c2ccc(F)cc2)C1)c1ccc(F)cc1`, the ED50 in the experiment filed under Rattus norvegicus [8], in the experiment listed under Rattus norvegicus [9] and in the experiment filed under Rattus norvegicus [10] was greater than 32 mg/kg throughout.

For `Cl.O=C(CCCN1CCc2c(c3cc(F)ccc3n2-c2ccc(F)cc2)C1)c1ccc(F)cc1`, the ED50 in the experiment with Rattus norvegicus [11], with Rattus norvegicus [12] and in the experiment on Rattus norvegicus [13] was 1 mg/kg in each case.

`CCCCCCCCCC(=O)OC(CCCN1CCc2c(c3cc(F)ccc3n2-c2ccc(F)cc2)C1)c1ccc(F)cc1.Cl` (centres undefined) showed a Protection in the experiment with Canis familiaris [14] of 0 days.

Regarding `Cl.OC(CCCN1CCc2c(c3cc(F)ccc3n2-c2ccccc2)C1)c1ccc(F)cc1` (centres undefined), the values for the ED50 in the experiment with Rattus norvegicus [11], in the experiment on Rattus norvegicus [12] and with Rattus norvegicus [7] were 1 mg/kg, 1 mg/kg and 3.2 mg/kg, respectively.

In the experiment with Canis familiaris [15], `CCCCC(=O)OC(CCCN1CCc2c(c3cc(F)ccc3n2-c2ccc(F)cc2)C1)c1ccc(F)cc1.Cl` (centres undefined) displayed a Protection of 8 days.

As for `Cl.OC(CCCN1CCc2c(c3cc(F)ccc3n2-c2ccc(F)cc2)C1)c1cccc(F)c1` (centres undefined), the values for the ED50 in the experiment on Rattus norvegicus [5], in the experiment with Rattus norvegicus [12] and with Rattus norvegicus [16] were 0.32 mg/kg, 1 mg/kg and 10 mg/kg, respectively.

For the compound `OC(CCCN1CCc2c(c3cc(F)ccc3n2-c2ccc(F)cc2)C1)c1ccc(F)cc1` (centres undefined) [FLUTROLINE], the 50% effective dose (ED50) was 0.1 mg/kg in the experiment on Rattus norvegicus [17], 0.1 mg/kg in the experiment with Rattus norvegicus [18] and 0.32 mg/kg in the experiment on Rattus norvegicus [19].
